# Results from patent US20020025918A1, “Methods of using helical peptides in plants” (priority 1987, published 2002).
# Like-named read-outs stand apart in the source and are kept apart here. Residues, ends and D or L forms follow the SMILES beside them.
# Key:
# [1] = system: E. coli; assay: MBC and MIC susceptibility test; assay type: cell-based
# [2] = system: B-16 myeloma cells; assay: B-16 cell viability, trypan blue exclusion; assay type: cell-based; details: for % Cell Viability: 100 μM peptide, one hour
# Procedure: (§1) B-16 myeloma cells and normal 3T3 […] fibroblasts were either permitted to attach to the test plate, or treated with trypsin to free the cells from the plastic dish prior to treatment. Cells were then treated with 100 μM lytic peptide for one hour as described above, and cell viability was then determined by trypan blue exclusion.
# [3] = system: Human mononuclear leukocytes; assay: 3H-thymidine uptake in WBC (proliferation); assay type: cell-based
# Procedure: Human mononuclear leukocytes were isolated from whole blood in the following manner. Blood was collected in vacutainer tubes containing EDTA, and was then diluted with an equal valume of calcium and magnesium-free PBS and layered over Histopaque resin (GIBCO). The tubes were centrifuged for 30 minutes at 25° C. and 450× g. The plasma and platelets above the banded layer of cells in the resulting gradient were removed and discarded. The banded white blood cells were removed to fresh test tubes, washed 3 times with PBS, and resuspended in RPMI medium containing 10% fetal bovine serum (FBS), mercaptoethanol, and penicillin and streptomycin as antibiotics. The cells were then counted and resuspended to a final concentration of 3×10^6 cells/ml.
# To each well of a 96 well flat-bottomed microtiter plate was aded 100 μl of cells (3×10^5 cells). Treatment groups were set in quadruplicate samples. The appropriate concentration of test peptide and/or the mitogen hytohemaglutinate (PHA), was added in a total volume of 100 μl of medium to the test wells. The plates were then incubated at 37° C. and 5% CO2 for a duration of 72 hours. At the end of the incubation period, 1 μCi of 3H-thymidine in 1 μl TRIS-HCI, PH8 was added to each well, and the plates incubated an additional 18 hours.
# Cellular DNA was harvested onto glass fiber filters using a semi-automatic cell harvester. The glass filters were then placed into vials containing scintillation fluid, and the samples were counted in a scintillation counter. The uptake of 3H-thymidine is an indiator of cell proliferation, thus the higher the number of counts in the sample, the greater the proliferative activity of the cells. The results in Table XI indicate that low dose of the synthetic peptides of this invention stimulate cell growth.
# [4] = system: E. coli; assay: Synergy of lytic peptide with antibiotics
# [5] = system: EL-4 lymphoma cells; assay: EL-4 cell killing, trypan blue exclusion; details: one hour, 37° C.
# [6] = 3T3 fibroblast viability, trypan blue exclusion; assay type: cell-based; details: human, 100 μM peptide, one hour, read-out: % Cell Viability
# Procedure: as §1
# [7] = system: P. aeruginosa; assay: MBC and MIC susceptibility test; assay type: cell-based
# [8] = Role of cytoskeletal structure in susceptibility to lysis, FDD cell viability; details: donkey, primary fetal donkey dermal cells (FDD), % Viability of Treated DD Cells, 100 μM peptide 15 minutes
# [9] = system: S. aureus; assay: MBC and MIC susceptibility test; assay type: cell-based
# [10] = system: S. auerus; assay: Synergy of lytic peptide with antibiotics
# [11] = system: lymphocytes; assay type: cell-based, human
# [12] = Lytic activity (general statement)
# [13] = Manitou-1 0.01 μM + Streptomycin 0.5 μM
# [14] = Manitou-1 0.01 μM + Streptomycin 5.0 μM
# [15] = Manitou-1 0.01 μM + Tetracycline 0.5 μM
# [16] = Manitou-1 0.01 μM + Tetracycline 5.0 μM
# [17] = Manitou-1 0.01 μM, no antibiotic
# [18] = Manitou-1 0.10 μM + Streptomycin 0.5 μM
# [19] = Manitou-1 0.10 μM + Streptomycin 5.0 μM
# [20] = Manitou-1 0.10 μM + Tetracycline 0.5 μM
# [21] = Manitou-1 0.10 μM + Tetracycline 5.0 μM
# [22] = Manitou-1 0.10 μM, no antibiotic
# [23] = Manitou-1 1.0 μM + Streptomycin 0.5 μM
# [24] = Manitou-1 1.0 μM + Streptomycin 5.0 μM
# [25] = Manitou-1 1.0 μM + Tetracycline 0.5 μM
# [26] = Manitou-1 1.0 μM + Tetracycline 5.0 μM
# [27] = Manitou-1 1.0 μM, no antibiotic
smiles,measurement,setting,value
CSCC[C@H](NC(=O)[C@H](CCCNC(=N)N)NC(=O)[C@H](CCCCN)NC(=O)[C@@H](N)CCSC)C(=O)N[C@H](C(=O)N[C@@H](CO)C(=O)N[C@@H](Cc1c[nH]c2ccccc12)C(=O)N[C@@H](CO)C(=O)N[C@@H](Cc1ccccc1)C(=O)N[C@@H](CCCCN)C(=O)N[C@@H](CCCCN)C(=O)N[C@@H](CC(C)C)C(=O)N[C@@H](CCCCN)C(=O)N[C@H](C(=O)N[C@@H](CCSC)C(=O)N[C@@H](CCCCN)C(=O)N[C@@H](CCCCN)C(=O)N[C@@H](CC(C)C)C(=O)N[C@@H](CC(C)C)C(=O)N[C@@H](CC(C)C)C(=O)N[C@@H](CC(C)C)C(=O)N[C@@H](CC(C)C)C(=O)N[C@@H](CC(C)C)C(=O)N[C@@H](CS)C(=O)N[C@H](C(=O)N[C@@H](Cc1ccccc1)C(=O)N[C@@H](CC(C)C)C(=O)N[C@H](C(=O)N[C@@H](CCCCN)C(=O)N[C@@H](CO)C(N)=O)C(C)C)C(C)C)[C@@H](C)O)C(C)C [Manitou-1] (H-MKRMVSWSFKKLKTMKKLLLLLLCVFLVKS-NH2),MBC,[1]; Table III,8 µM
same,% Cell Viability,[2]; B-16 Monolayer,19%
same,% Cell Viability,[2]; B-16 Suspension (trypsinized),0%
same,selective killing of cancer cells in monolayer culture (in words),[2]; B-16 versus 3T3 attached in monolayer,more effective than LSB-37 in selectively killing cancer cells
same,"3H-Thymidine Uptake in WBC, % of Control","[3]; peptide 10 μM, PHA 0 mg",239%
same,"3H-Thymidine Uptake in WBC, % of Control","[3]; peptide 10 μM, PHA 0.5 mg",191%
same,"3H-Thymidine Uptake in WBC, % of Control","[3]; peptide 10 μM, PHA 5.0 mg",125%
same,"3H-Thymidine Uptake in WBC, % of Control","[3]; peptide 25 μM, PHA 0 mg",325%
same,"3H-Thymidine Uptake in WBC, % of Control","[3]; peptide 25 μM, PHA 0.5 mg",153%
same,"3H-Thymidine Uptake in WBC, % of Control","[3]; peptide 25 μM, PHA 5.0 mg",143%
same,"3H-Thymidine Uptake in WBC, % of Control","[3]; peptide 50 μM, PHA 0 mg",62%
same,"3H-Thymidine Uptake in WBC, % of Control","[3]; peptide 50 μM, PHA 0.5 mg",61%
same,"3H-Thymidine Uptake in WBC, % of Control","[3]; peptide 50 μM, PHA 5.0 mg",63%
same,"3H-Thymidine Uptake in WBC, % of Control","[3]; peptide 100 μM, PHA 0 mg",39%
same,"3H-Thymidine Uptake in WBC, % of Control","[3]; peptide 100 μM, PHA 0.5 mg",8%
same,"3H-Thymidine Uptake in WBC, % of Control","[3]; peptide 100 μM, PHA 5.0 mg",0%
same,% Cell Death In E. coli,[4]; [13],99.9%
same,% Cell Death In E. coli,[4]; [14],58%
same,% Cell Death In E. coli,[4]; [15],68%
same,% Cell Death In E. coli,[4]; [16],88%
same,% Cell Death In E. coli,[4]; [17],0%
same,% Cell Death In E. coli,[4]; [18],68%
same,% Cell Death In E. coli,[4]; [19],99.9%
same,% Cell Death In E. coli,[4]; [20],0%
same,% Cell Death In E. coli,[4]; [21],58%
same,% Cell Death In E. coli,[4]; [22],0%
same,% Cell Death In E. coli,[4]; [23],0%
same,% Cell Death In E. coli,[4]; [24],99.9%
same,% Cell Death In E. coli,[4]; [25],0%
same,% Cell Death In E. coli,[4]; [26],47%
same,% Cell Death In E. coli,[4]; [27],0%
same,interaction with streptomycin in E. Coli (in words),[4]; Manitou-1 with streptomycin,synergistic action
same,% EL-4 Cells Killed,[5]; 10 μM peptide,5%
same,% EL-4 Cells Killed,[5]; 25 μM peptide,28%
same,% EL-4 Cells Killed,[5]; 50 μM peptide,78%
same,% EL-4 Cells Killed,[5]; 100 μM peptide,100%
same,"viability at 1 h, 100 μM","[6]; normal 3T3 human fibroblasts, 3T3 Suspension (trypsinized)",5%
same,"viability at 1 h, 100 μM",[6]; 3T3 Monolayer,85%
same,MBC,"[7]; Table III, P. aeuriginosa (−)",16 µM
same,"viability at 15 minutes, 100 μM",[8]; Cold-treated (4° C.),8%
same,"viability at 15 minutes, 100 μM",[8]; Warm-treated (37° C.),78%
same,"viability at 15 minutes, 100 μM","[8]; with colchicine 0.1 μg/ml (cytoskeletal inhibitor), Colchicine-treated (0.1 μg/ml)",30%
same,"viability at 15 minutes, 100 μM","[8]; with cytochalasin D 5 μg/ml (cytoskeletal inhibitor), Cytochalasin D-treated (5 μg/ml)",23%
same,MBC,"[9]; Table III, S. aureus (+)",32 µM
same,% Cell Death In S. auerus,[10]; [13],0%
same,% Cell Death In S. auerus,[10]; [14],87%
same,% Cell Death In S. auerus,[10]; [15],0%
same,% Cell Death In S. auerus,[10]; [16],35%
same,% Cell Death In S. auerus,[10]; [17],0%
same,% Cell Death In S. auerus,[10]; [18],0%
same,% Cell Death In S. auerus,[10]; [19],95%
same,% Cell Death In S. auerus,[10]; [20],0%
same,% Cell Death In S. auerus,[10]; [21],35%
same,% Cell Death In S. auerus,[10]; [22],0%
same,% Cell Death In S. auerus,[10]; [23],0%
same,% Cell Death In S. auerus,[10]; [24],86%
same,% Cell Death In S. auerus,[10]; [25],0%
same,% Cell Death In S. auerus,[10]; [26],35%
same,% Cell Death In S. auerus,[10]; [27],0%
CC[C@H](C)[C@H](NC(=O)[C@H](CC(N)=O)NC(=O)[C@H](CCCNC(=N)N)NC(=O)CNC(=O)[C@H](CCSC)NC(=O)[C@H](CCCCN)NC(=O)[C@H](CCC(=O)O)NC(=O)[C@@H](NC(=O)[C@H](CCCCN)NC(=O)[C@H](CC(C)C)NC(=O)[C@H](Cc1ccccc1)NC(=O)[C@@H](NC(=O)[C@H](CCCCN)NC(=O)[C@H](CCC(=O)O)NC(=O)[C@H](CCCCN)NC(=O)[C@@H]1CCCN1C(=O)[C@@H](N)CCSC)C(C)C)[C@@H](C)CC)C(=O)N[C@@H](CCCNC(=N)N)C(=O)N[C@@H](CC(N)=O)C(N)=O [Vishnu-3] (H-MPKEKVFLKIEKMGRNIRN-NH2),antibacterial result of treatment (Table I; MBC),[1],>64 µM
same,antibacterial result of treatment (Table I; MBC),[7]; P. aeruginosa (−),>64 µM
same,antibacterial result of treatment (Table I; MBC),[9]; S. auerus (+),>64 µM
same,stimulation of cell proliferation (in words),[11],potent stimulator of cell proliferation
same,lytic activity (in words),[12],devoid of lytic activity
